From PMC12067444, “Synthesis and Pharmacological Characterization of Novel Peripheral Cannabinoid-1 Receptor Blockers Based on a Tricyclic Scaffold” (Journal of Medicinal Chemistry, 2025)
Blank lines part the entries; values can stand above or below the compound they belong to.

How the values were obtained:
P-gp (MDR1) = P-gp (MDR1) (Homo sapiens, UniProt P08183); test: Bidirectional permeability in MDR1-MDCKII cells with and without GF120918; conditions: dog; for Papp A→B at 2.5 h: MDCK-MDR1; for recovery at 2.5 h: MDCK-MDR1, Mean recovery % A to B, without GF120918
P-gp (MDR1), sequence (P08183 whole entry): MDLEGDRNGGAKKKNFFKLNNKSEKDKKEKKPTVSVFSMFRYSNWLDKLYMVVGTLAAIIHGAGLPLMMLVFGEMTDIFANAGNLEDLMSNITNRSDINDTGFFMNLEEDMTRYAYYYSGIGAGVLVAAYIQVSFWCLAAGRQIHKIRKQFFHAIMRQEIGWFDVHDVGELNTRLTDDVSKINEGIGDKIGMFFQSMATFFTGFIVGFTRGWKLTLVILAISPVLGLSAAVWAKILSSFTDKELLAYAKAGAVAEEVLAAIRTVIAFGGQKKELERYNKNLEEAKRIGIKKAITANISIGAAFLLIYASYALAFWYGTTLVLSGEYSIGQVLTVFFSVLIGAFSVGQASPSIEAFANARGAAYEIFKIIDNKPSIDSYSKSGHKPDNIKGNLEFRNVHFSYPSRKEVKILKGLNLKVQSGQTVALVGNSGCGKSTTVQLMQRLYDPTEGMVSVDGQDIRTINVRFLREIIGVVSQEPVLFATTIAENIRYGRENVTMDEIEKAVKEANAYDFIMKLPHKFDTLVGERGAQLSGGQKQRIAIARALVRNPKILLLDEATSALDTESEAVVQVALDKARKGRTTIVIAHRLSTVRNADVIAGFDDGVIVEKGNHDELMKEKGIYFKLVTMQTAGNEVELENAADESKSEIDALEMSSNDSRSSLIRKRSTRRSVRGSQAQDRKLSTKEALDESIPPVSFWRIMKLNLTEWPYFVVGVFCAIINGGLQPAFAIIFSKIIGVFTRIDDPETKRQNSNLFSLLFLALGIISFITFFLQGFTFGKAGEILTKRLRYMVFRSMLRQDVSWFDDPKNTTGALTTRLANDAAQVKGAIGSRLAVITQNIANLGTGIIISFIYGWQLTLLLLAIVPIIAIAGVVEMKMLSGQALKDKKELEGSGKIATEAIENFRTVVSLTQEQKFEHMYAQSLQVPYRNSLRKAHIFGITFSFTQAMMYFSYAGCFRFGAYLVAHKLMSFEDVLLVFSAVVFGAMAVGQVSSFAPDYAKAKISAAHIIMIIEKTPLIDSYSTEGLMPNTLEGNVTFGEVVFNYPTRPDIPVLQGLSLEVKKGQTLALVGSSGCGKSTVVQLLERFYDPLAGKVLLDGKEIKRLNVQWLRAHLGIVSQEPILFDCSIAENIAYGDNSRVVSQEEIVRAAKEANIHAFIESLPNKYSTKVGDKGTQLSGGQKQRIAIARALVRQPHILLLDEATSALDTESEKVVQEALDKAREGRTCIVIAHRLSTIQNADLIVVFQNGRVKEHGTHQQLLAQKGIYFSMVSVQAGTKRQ
Procedure: (§1) MDR1-MDCKII cells were seeded onto […] (PET) in a 96-well insert system. Test and reference compounds were administered to the apical (A-to-B) and basolateral (B-to-A) sides of the cell monolayer. Permeation of the compounds in both directions was assessed, with and without a P-glycoprotein (P-gp) inhibitor (GF120918). […] After a 2.5-h incubation period, each compound’s permeability and efflux ratio were calculated as described in the SI. […]
(§2) Bidirectional permeability assessment in MDR1-MDCK cells. Test and reference compounds were quantified using LC -MS/MS ana lysis based on th e peak ar ea r atio of analyte to internal standard (IS). T he apparent permeability coefficient (Papp) in cm/s was computed using the equation: Pa pp = (dCr/d t ) × V r / ( A × C 0), where dCr/ d t […]
(§3) represents the cumulative concentration of the compound in the receiver chamber over time (µM/s), Vr is the solution volume in the receiver chamber (0.075 mL on the apical side, 0.25 mL on the basolateral side), A is the surface area for transport (0.0804 cm2 f or the monolayer ar ea), and C0 is the initial concentration in the donor chamber ( µM) .
(§4) The efflux ratio was determined using the equation Efflux Ratio = P a pp ( B:
(§5) A ) / Pa pp (A: B) . […]
(§6) Additionally, the percent of lucifer yellow in the basolateral well was calculated using the equation:
(§7) Lucif er yellow = VV bbbbbbbbbbbbbbbbbbbb ×RR FFFF bbbbbbbbbbbbbbbbbbbb ×100 VV bbaaaaaa bbbb ×RRRRRR bbaaaaaa bbbb+VV bbbbbbbbbbbbbbbbbbbb ×RRFFFF bbbbbbbbbbbbbbbbbbbb wher e RFUApical and RFUBasolateral demote the r elative f luor escence unit values of lucif er yellow in the apical and basolateral wells, respectively, and VApical and VBasolateral represent the volumes of apical and basolateral wells (0.075 mL and 0.25 mL, r espectively) . T he % Lucif er Yellow should be less than 2, indicating minimal leakage. […]

P-gp (MDR1-MDCKII cells) = P-gp (MDR1-MDCKII cells) (Homo sapiens, UniProt P08183); test: as above; conditions: for Rank Papp: MDR1-MDCKII permeability rank
P-gp (MDR1-MDCKII cells), sequence (P08183 whole entry): as above
Procedure: as §1, §2, §3, §4, §5, §6, §7

TA100 = test: Mini-Ames assay, strain TA100; format: cell-based
Procedure: (§8) Mini Am es assay. To conduct the assay, top agar was melted with a microwave and maintained at a temper atur e ≥47 °C in a water bath. T he assay was performed using a heat block set to 45 °C ± 2 °C. 12 × 75 mm test tubes were prepared in duplicates. For each concentration, the following components were added sequentially to a test tube:
(§9) […] The mixture was vortexed and then dispensed into w ells using a dispo sable pipette. The plates wer e then incubated at 37±2 °C for approximately 48 to 72 hours.
(§10) BBbbbb BBBBbbbb BBBB = AAAAbbbbbbAAbb nnnnnnbbbbbb bboo bbbbAAbbbbbbbbnnbbbb oobbbb bbbb eeee dd bbbbbb AAbbbbnn gg AAAAbbbbbbAAbb nnnnnnbbbbbb bbBB bbbbAAbbbbbbbbnnbbbb BBbbbb DDDDDDDD nn bbAAbbbbaaAAbb AAbbbbnnaa The mutagenicity of the compound was determined by evaluating the number of revertant colonies in strains TA98 and TA100. A compound was […]
(§11) related and if the fold increase in revertants (F) was equal to or greater than 2 for […]
(§12) background lawn growth on the agar plates. A scoring system ranging from 0 to 4 […]
complete cytotoxicity, while scores 1, 2, and 3 represented 25%, 50%, and 75% growth, respectively. A score of 4 signified full '100%' growth. The background […]
(§13) background lawn and required magnification for visualization. […]

TA98 = test: Mini-Ames assay, strain TA98; format: cell-based; conditions: Salmonella typhimurium
Procedure: as §8, §9, §10, §11, §12
growth, respectively. A score of 4 signified full '100%' growth. […]
as §13

HepG2 cells = test: Cell viability assay (CellTiter Glo); format: cell-based; conditions: Homo sapiens, 72 h, read-out: cell viability relative IC50
Procedure: Cell viability assay. To assess the cell viability, which indicates the toxicity of the novel compounds, a total of 3,000 HepG2 cells were seeded into a 384-well plate. The compounds were then dispensed onto the cell plate using a Tecan D300e digital dispenser. Following compound addition, 35 μL CellTiter Glo reagent was added to all wells of the assay plate, and the plate was mixed for 30 sec on an or bital shaker to lyse cells. Subsequently, the plate was incubated at room temperature for 10 minutes. The luminescence signal was measured using a 384-well plate reader (EnVision). The obtained data were analyzed using XL-fit software (ID Business Solutions Ltd., Software version: XL fit 5. 5. 0. 5). The percentage of inhibition was calculated using the […]
Inhibition (%) = (1-Sample / ZPE) ×100
Sample represents the test compound's luminesc e nce signal, and ZPE represents the luminescence signal f r om the zer o-percent enzyme control.

[1] = Salmonella typhimurium, 2 μg/well

Papp A→B at 2.5 h (P-gp (MDR1)): 0.42 ×10⁻⁶ cm/s | recovery at 2.5 h (P-gp (MDR1)): 102% | Rank Papp (P-gp (MDR1-MDCKII cells)): Low
Compound: CC(C)(C)NCC(O)COc1cccc2c1CC(O)C(O)C2 (centres unmarked) [Nadolol, reference compound]

Papp A→B at 2.5 h (P-gp (MDR1)): 28.7 ×10⁻⁶ cm/s | recovery at 2.5 h (P-gp (MDR1)): 107% | Rank Papp (P-gp (MDR1-MDCKII cells)): Hi gh
Compound: COCCc1ccc(OCC(O)CNC(C)C)cc1 (centres unmarked) [Metoprolol, reference compound]

P-gp substrate (P-gp (MDR1-MDCKII cells); MDR1-MDCKII cells): Ye s | Rank Papp (P-gp (MDR1-MDCKII cells)): Low | Mean Papp B to A (P-gp (MDR1-MDCKII cells); without GF120918): 10.88 10 -6 cm/s
Compound: C[C@H]1O[C@@H](O[C@H]2[C@@H](O)C[C@H](O[C@H]3[C@@H](O)C[C@H](O[C@H]4CC[C@@]5(C)[C@H](CC[C@@H]6[C@@H]5C[C@@H](O)[C@]5(C)[C@@H](C7=CC(=O)OC7)CC[C@]65O)C4)O[C@@H]3C)O[C@@H]2C)C[C@H](O)[C@@H]1O [Digoxin, reference compound]

Compound: Nc1ccc2cc3ccccc3cc2c1 [2-aminoanthracene (2-AA), 2-aminoanthracene, reference compound]
solubility (TA100): P0 | F value (TA100; [1]): 8.00 | Number of revertants MEAN (TA100; [1]): 317.33 | F value (TA98; 2 μg/well): 31.70 | Number of revertants MEAN (TA98; 2 μg/well): 348.67

Compound: O=[N+]([O-])c1ccc2c(c1)Cc1ccccc1-2 [2-nitrofluorene (2-NF), 2-nitrofluorene, reference compound]
F value (TA98; 4 μg/well): 14.00 | Number of revertants MEAN (TA98; 4 μg/well): 102.67

Compound: CN[C@@H]1C[C@H]2O[C@@](C)([C@@H]1OC)n1c3ccccc3c3c4c(c5c6ccccc6n2c5c31)C(=O)NC4 [Staurosporine, reference compound]
IC50 (HepG2 cells): 60 nM
